Earlier results on one compound are cited in patent US20230263779A1, “METHODS OF TREATING SOLID TUMORS USING NANOPARTICLE MTOR INHIBITOR COMBINATION THERAPY” (Abraxis BioScience, LLC, priority 2015, published 2023).

The structures appear in SMILES notation.

The conditions of data set [1]: in vivo.

`COc1ccc(COc2cc3oc(=O)c4cc(C(C)O)ccc4c3cc2OC)cc1` (centres unmarked) [Palomid 529]: the brain penetration result in data set [1] was “good brain penetration”. In addition, the “affinity for ABCB1/ABCG2” value with ABCB1/ABCG2 was “lacks affinity”.
